In ChEMBL document CHEMBL3885861, “Open TG-GATES”:

Species on record: Rattus norvegicus
Test: Open TG-GATES - Regimen: Single
Format: toxicity, organism-based, Sprague-Dawley
Design: regimen Single, gender Male, age 6 weeks
Conditions: in vivo, po, route gavage; for APTT / Bas / Eos / Fbg / Hb / Ht / Lym / MCH / MCHC / MCV / Mono / Neu / PT / Plat / RBC / Ret / WBC: tissue Blood; for KIDNEY_L / KIDNEY_R / KIDNEY_TOTAL: tissue Kidney; for LIVER: tissue Liver; for A/G / ALP / ALT / AST / BUN / CRE / Ca / Cl / DBIL / GLC / IP / K / LDH / Na / PL / RALB / TBIL / TC / TG / TP / gamma-GTP: tissue Plasma
[1] = 0 mg/kg, 3 h, dose level Control
[2] = 0 mg/kg, 6 h, dose level Control
[3] = 0 mg/kg, 9 h, dose level Control
[4] = 0 mg/kg, 24 h, dose level Control
[5] = 400 mg/kg, 24 h, dose level Low

## CCO [ALCOHOL]
[1]
  TERMINAL_BW: 207 g
  APTT: 17.7 s
  Bas: 0%
  Eos: 1%
  Fbg: 200.4 mg/dL
  Hb: 13.3 g/dL
  Ht: 39.9%
  Lym: 76%
  MCH: 21.5 pg
  MCHC: 33.4%
  MCV: 64.2 fL
  Mono: 7.6%
  Neu: 15.2%
  PT: 12 s
  Plat: 110.3 x10_4/uL
  RBC: 622.4 x10_4/ul
  Ret: 8.9%
  WBC: 99.3 x10_2/uL
  KIDNEY_L: 0.9 g
  KIDNEY_R: 1 g
  KIDNEY_TOTAL: 1.9 g
  LIVER: 9.6 g
  A/G: 2.7
  ALP: 951 IU/L
  ALT: 39.2 IU/L
  AST: 69 IU/L
  BUN: 13 mg/dL
  CRE: 0.5 mg/dL
  Ca: 10.8 mg/dL
  Cl: 103.8 meq/L
  DBIL: 0.02 mg/dL
  GLC: 192 mg/dL
  IP: 8.7 mg/dL
  K: 4.5 meq/L
  LDH: 103.2 IU/L
  Na: 140 meq/L
  PL: 145.8 mg/dL
  RALB: 3.9 g/dL
  TBIL: 0.4 mg/dL
  TC: 83.8 mg/dL
  TG: 59.6 mg/dL
  TP: 5.3 g/dL
  gamma-GTP: 1.4 IU/L
[2]
  TERMINAL_BW: 207 g
  APTT: 18.8 s
  Bas: 0%
  Eos: 1%
  Fbg: 212 mg/dL
  Hb: 13.9 g/dL
  Ht: 41.4%
  Lym: 74%
  MCH: 21.8 pg
  MCHC: 33.5%
  MCV: 64.9 fL
  Mono: 9.2%
  Neu: 15.8%
  PT: 11.8 s
  Plat: 116.1 x10_4/uL
  RBC: 638.8 x10_4/ul
  Ret: 10.4%
  WBC: 90.5 x10_2/uL
  KIDNEY_L: 0.9 g
  KIDNEY_R: 1 g
  KIDNEY_TOTAL: 1.9 g
  LIVER: 9.6 g
  A/G: 2.4
  ALP: 727.6 IU/L
  ALT: 32.4 IU/L
  AST: 58.2 IU/L
  BUN: 11 mg/dL
  CRE: 0.5 mg/dL
  Ca: 10.4 mg/dL
  Cl: 105.2 meq/L
  DBIL: 0.06 mg/dL
  GLC: 184.8 mg/dL
  IP: 9.6 mg/dL
  K: 4.8 meq/L
  LDH: 62 IU/L
  Na: 139.6 meq/L
  PL: 141.8 mg/dL
  RALB: 3.8 g/dL
  TBIL: 0.4 mg/dL
  TC: 80.8 mg/dL
  TG: 55 mg/dL
  TP: 5.4 g/dL
  gamma-GTP: 2 IU/L
[3]
  TERMINAL_BW: 201.1 g
  APTT: 20.7 s
  Bas: 0%
  Eos: 1%
  Fbg: 199.2 mg/dL
  Hb: 13.5 g/dL
  Ht: 40.1%
  Lym: 66%
  MCH: 21.8 pg
  MCHC: 33.7%
  MCV: 64.6 fL
  Mono: 9.2%
  Neu: 23.6%
  PT: 12.2 s
  Plat: 112.2 x10_4/uL
  RBC: 620.8 x10_4/ul
  Ret: 11.7%
  WBC: 75.4 x10_2/uL
  KIDNEY_L: 0.9 g
  KIDNEY_R: 0.9 g
  KIDNEY_TOTAL: 1.9 g
  LIVER: 8.3 g
  A/G: 2.8
  ALP: 861 IU/L
  ALT: 30.8 IU/L
  AST: 66.8 IU/L
  BUN: 13.4 mg/dL
  CRE: 0.5 mg/dL
  Ca: 10.7 mg/dL
  Cl: 106.4 meq/L
  DBIL: 0.038 mg/dL
  GLC: 196.2 mg/dL
  IP: 9.8 mg/dL
  K: 5.1 meq/L
  LDH: 74.6 IU/L
  Na: 137.4 meq/L
  PL: 133.4 mg/dL
  RALB: 3.9 g/dL
  TBIL: 0.4 mg/dL
  TC: 74 mg/dL
  TG: 46.6 mg/dL
  TP: 5.3 g/dL
  gamma-GTP: 2 IU/L
[4]
  TERMINAL_BW: 219 g
  APTT: 17.7 s
  Bas: 0%
  Eos: 1.4%
  Fbg: 207.4 mg/dL
  Hb: 13.5 g/dL
  Ht: 39.6%
  Lym: 74.8%
  MCH: 22.3 pg
  MCHC: 34%
  MCV: 65.6 fL
  Mono: 9.8%
  Neu: 14.6%
  PT: 11.6 s
  Plat: 115.5 x10_4/uL
  RBC: 604 x10_4/ul
  Ret: 10%
  WBC: 101.6 x10_2/uL
  KIDNEY_L: 1 g
  KIDNEY_R: 1 g
  KIDNEY_TOTAL: 2 g
  LIVER: 10.4 g
  A/G: 2.6
  ALP: 862 IU/L
  ALT: 39.8 IU/L
  AST: 64.8 IU/L
  BUN: 17.2 mg/dL
  CRE: 0.5 mg/dL
  Ca: 10.9 mg/dL
  Cl: 103.4 meq/L
  DBIL: 0.006 mg/dL
  GLC: 194.4 mg/dL
  IP: 8.5 mg/dL
  K: 4.7 meq/L
  LDH: 87.8 IU/L
  Na: 139 meq/L
  PL: 150.2 mg/dL
  RALB: 4 g/dL
  TBIL: 0.3 mg/dL
  TC: 83 mg/dL
  TG: 100.8 mg/dL
  TP: 5.5 g/dL
  gamma-GTP: 1.4 IU/L
400 mg/kg, 3 h, dose level Low
  TERMINAL_BW: 202.6 g
  APTT: 16.4 s
  Bas: 0%
  Eos: 1%
  Fbg: 202.8 mg/dL
  Hb: 13.7 g/dL
  Ht: 40.7%
  Lym: 81.2%
  MCH: 21.8 pg
  MCHC: 33.6%
  MCV: 64.7 fL
  Mono: 5.6%
  Neu: 12.2%
  PT: 12 s
  Plat: 115.5 x10_4/uL
  RBC: 628.6 x10_4/ul
  Ret: 10%
  WBC: 77.8 x10_2/uL
  KIDNEY_L: 0.9 g
  KIDNEY_R: 0.9 g
  KIDNEY_TOTAL: 1.8 g
  LIVER: 9.6 g
  A/G: 2.5
  ALP: 1037.2 IU/L
  ALT: 36.2 IU/L
  AST: 69 IU/L
  BUN: 13.8 mg/dL
  CRE: 0.5 mg/dL
  Ca: 10.7 mg/dL
  Cl: 104.4 meq/L
  DBIL: 0.012 mg/dL
  GLC: 195.8 mg/dL
  IP: 9.3 mg/dL
  K: 4.4 meq/L
  LDH: 117.6 IU/L
  Na: 139.8 meq/L
  PL: 140.4 mg/dL
  RALB: 3.9 g/dL
  TBIL: 0.4 mg/dL
  TC: 76.4 mg/dL
  TG: 66 mg/dL
  TP: 5.4 g/dL
  gamma-GTP: 1.2 IU/L
400 mg/kg, 6 h, dose level Low
  TERMINAL_BW: 202.6 g
  APTT: 17.9 s
  Bas: 0%
  Eos: 1%
  Fbg: 220.2 mg/dL
  Hb: 13.8 g/dL
  Ht: 41.1%
  Lym: 70.4%
  MCH: 21.7 pg
  MCHC: 33.6%
  MCV: 64.6 fL
  Mono: 6.6%
  Neu: 22.4%
  PT: 11.8 s
  Plat: 114.6 x10_4/uL
  RBC: 636.6 x10_4/ul
  Ret: 10.1%
  WBC: 98 x10_2/uL
  KIDNEY_L: 0.9 g
  KIDNEY_R: 0.9 g
  KIDNEY_TOTAL: 1.8 g
  LIVER: 9.6 g
  A/G: 2.3
  ALP: 802 IU/L
  ALT: 29.8 IU/L
  AST: 61.8 IU/L
  BUN: 11.2 mg/dL
  CRE: 0.5 mg/dL
  Ca: 10.5 mg/dL
  Cl: 105 meq/L
  DBIL: 0.068 mg/dL
  GLC: 197.2 mg/dL
  IP: 9.8 mg/dL
  K: 4.7 meq/L
  LDH: 90.2 IU/L
  Na: 139.6 meq/L
  PL: 135.4 mg/dL
  RALB: 3.8 g/dL
  TBIL: 0.4 mg/dL
  TC: 75 mg/dL
  TG: 53.2 mg/dL
  TP: 5.4 g/dL
  gamma-GTP: 1.8 IU/L
400 mg/kg, 9 h, dose level Low
  TERMINAL_BW: 203.1 g
  APTT: 18.5 s
  Bas: 0%
  Eos: 1.4%
  Fbg: 205 mg/dL
  Hb: 13.4 g/dL
  Ht: 40.1%
  Lym: 70.4%
  MCH: 21.7 pg
  MCHC: 33.5%
  MCV: 64.7 fL
  Mono: 7.6%
  Neu: 20.4%
  PT: 12 s
  Plat: 110.8 x10_4/uL
  RBC: 619 x10_4/ul
  Ret: 10.4%
  WBC: 90.1 x10_2/uL
  KIDNEY_L: 0.9 g
  KIDNEY_R: 0.9 g
  KIDNEY_TOTAL: 1.8 g
  LIVER: 8.6 g
  A/G: 2.9
  ALP: 826.6 IU/L
  ALT: 30.2 IU/L
  AST: 63 IU/L
  BUN: 12.8 mg/dL
  CRE: 0.5 mg/dL
  Ca: 10.9 mg/dL
  Cl: 105.6 meq/L
  DBIL: 0.038 mg/dL
  GLC: 199.4 mg/dL
  IP: 9.9 mg/dL
  K: 4.5 meq/L
  LDH: 106.4 IU/L
  Na: 137 meq/L
  PL: 137.4 mg/dL
  RALB: 4.1 g/dL
  TBIL: 0.4 mg/dL
  TC: 79.4 mg/dL
  TG: 37.2 mg/dL
  TP: 5.5 g/dL
  gamma-GTP: 1.8 IU/L
[5]
  TERMINAL_BW: 214.8 g
  APTT: 16.9 s
  Bas: 0%
  Eos: 1.6%
  Fbg: 196.4 mg/dL
  Hb: 13.2 g/dL
  Ht: 39.2%
  Lym: 75%
  MCH: 21.3 pg
  MCHC: 33.7%
  MCV: 63.3 fL
  Mono: 7.2%
  Neu: 17%
  PT: 11.5 s
  Plat: 122.1 x10_4/uL
  RBC: 619 x10_4/ul
  Ret: 10.5%
  WBC: 85 x10_2/uL
  KIDNEY_L: 1 g
  KIDNEY_R: 1 g
  KIDNEY_TOTAL: 2 g
  LIVER: 9.9 g
  A/G: 2.6
  ALP: 906 IU/L
  ALT: 41 IU/L
  AST: 65.4 IU/L
  BUN: 17.8 mg/dL
  CRE: 0.5 mg/dL
  Ca: 11 mg/dL
  Cl: 104.4 meq/L
  DBIL: 0.018 mg/dL
  GLC: 201 mg/dL
  IP: 8.1 mg/dL
  K: 4.7 meq/L
  LDH: 103.6 IU/L
  Na: 139 meq/L
  PL: 142 mg/dL
  RALB: 4 g/dL
  TBIL: 0.4 mg/dL
  TC: 79.2 mg/dL
  TG: 61.4 mg/dL
  TP: 5.6 g/dL
  gamma-GTP: 1.6 IU/L
